Source: PMC10791743, “Selective CK1α degraders exert antiproliferative activity against a broad range of human cancer cell lines” (Nature Communications, 2024)
“And” between values parts separate entries of the source, which are not always exact repeats. Identical values can stand only once.

What was measured:
MOLM-13 cells [1] = experiment: MOLM-13 cell viability assay (CTG, 72 h); type: cell-based, human; set-up: key to Cell viability in MOLM-13 cells / cell viability, dose-response replicate values: % viability = 100 − % activity, normalized to controls; settings: for Cell viability in MOLM-13 cells: SJ7095 series
MOLM-13 cells [2] = experiment: Annexin-V staining for apoptosis, wild type MOLM-13; type: cell-based, human; settings: for total apoptosis, flow cytometry: MOLM-13; for Late apoptosis, flow cytometry / Early apoptosis, flow cytometry: WT
Protocol: (§1) Wild type and CRBN^−/− MOLM-13 cells were grown in 12-well plates (TPP, Techno Plastic Products AG) with 500,000 cells per well in 2 ml total media volume. Cells were treated with 1 μl/ml DMSO or 1 μM compound in triplicate, and incubated for 24 or 72 h at 37 °C. To prepare samples, this buffer was used: 10 mM HEPES, 0.14 M NaCl, 2.5 mM CaCl2 pH 7.4, 2% v/v FBS in UltraPure water (Invitrogen). After incubation, samples were collected in 5-ml tubes for flow cytometry (Falcon). Single-stain controls consisted of ~150 μl of multiple samples combined. Wells were washed with 1 ml of buffer that was added to the corresponding sample tube. Cells were centrifuged at 500×g for 5 min at 4 °C to form a pellet. Supernatant was decanted and cells were washed again with 3 ml of buffer, then centrifuged. After decanting the supernatant, 3 μl of APC-conjugated anti-Annexin-V antibody (BioLegend) was added to each tube in the residual buffer left behind. Samples were mixed by vortex and incubated at room temperature in the dark for 20 min. Samples were then washed and centrifuged a final time, decanting the supernatant and blotting the tubes to remove residual buffer. 50 μl of buffer with DAPI was added to all appropriate samples and mixed, then analyzed by flow cytometry.
(§2) Supplementary Fig. 13: Gating for Annexin V flow cytometry analysis. Total cells were gated to remove cell debris, followed by single cell gating on the FSC-A/FSC-H diagonal. Within the single […]
(§3) Live cells are negative for both fluorescent markers, DAPI positive/APC negative cells are necrotic, APC positive/DAPI negative cells are still alive but in the early stages of apoptosis, and double positive cells are dead via apoptosis. Percentages of early and late apoptosis were plotted in supplementary figures 4 and 5.
(§4) (1 picture or pasted object on this page, not shown here)

CRBN−/− MOLM-13 cells = experiment: Annexin-V staining for apoptosis, CRBN−/− MOLM-13; type: cell-based, human; settings: for Late apoptosis, flow cytometry / Early apoptosis, flow cytometry: CRBN-/-; for total apoptosis, flow cytometry: MOLM-13 CRBN-/-
Protocol: as §1, §2, §3, §4

CK1α = CK1α (Homo sapiens, UniProt P48729+Q96SW2); experiment: CK1α HiBiT live-cell kinetic degradation assay (HEK293 cells); type: cell-based; set-up: engineered by CRISPR/Cas9 to express endogenous CK1α (HEK293 cells) with a HiBiT tag
Text: To measure cellular protein levels, we used cell lines that have been engineered by CRISPR/Cas9 to express endogenous CK1α (HEK293 cells) or IKZF1 (Jurkat cells) with a HiBiT tag, which when coupled with LgBiT expression forms NanoBiT, a bioluminescent protein that can be used for kinetic studies of protein degradation. […] Cell viability was also monitored with CellTiter Glo 2.0 (Promega) at the completion of the experiment to ensure that loss of protein was not a consequence of a loss of cell viability.
IKZF1-HiBiT Jurkat LgBiT stable cells were seeded at 60,000 cells/well in 50% growth media/50% CO2 independent medium supplemented with 10% FBS and 1× Endurazine substrate. […] A dose–response curve was generated by performing 3-fold dilutions of each compound including a DMSO-only control in growth media. For live cell kinetic degradation assays, diluted compounds were added to CK1α and β-catenin plates and placed in a GloMax Discover (Promega, Cat. #GM3000) preheated to 37 °C or added to IKZF1 plates and placed in a CLARIOstar Plus (BMG LABTECH) preheated to 37 °C.
Relative protein level was determined based on normalization to the DMSO control and reported at Fractional RLUs. Degradation rate and degradation maximums were calculated from Fractional RLUs as previously described[38] using GraphPad Prism software. β-catenin stabilization time of onset for each concentration curve was calculated in GraphPad Prism by fitting an unconstrained plateau followed by one phase association model using the equation below (Y = IF(X < X0, Y0,Y0+(Plateau−Y0)*(1−exp(−K*(X−X0))))). The parameter, X0 was used as time of onset for each compound concentration.

Sequence of CK1α (P48729 whole entry): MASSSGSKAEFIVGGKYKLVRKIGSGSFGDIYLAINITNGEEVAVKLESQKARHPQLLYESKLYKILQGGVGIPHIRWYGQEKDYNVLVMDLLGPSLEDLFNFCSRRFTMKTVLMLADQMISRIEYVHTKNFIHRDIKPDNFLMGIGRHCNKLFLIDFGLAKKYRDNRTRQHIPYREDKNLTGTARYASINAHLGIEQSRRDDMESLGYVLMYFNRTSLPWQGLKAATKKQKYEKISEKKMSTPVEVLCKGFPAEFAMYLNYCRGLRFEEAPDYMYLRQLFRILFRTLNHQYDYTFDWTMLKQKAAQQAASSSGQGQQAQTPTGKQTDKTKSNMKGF
Sequence of CK1α (Q96SW2 whole entry): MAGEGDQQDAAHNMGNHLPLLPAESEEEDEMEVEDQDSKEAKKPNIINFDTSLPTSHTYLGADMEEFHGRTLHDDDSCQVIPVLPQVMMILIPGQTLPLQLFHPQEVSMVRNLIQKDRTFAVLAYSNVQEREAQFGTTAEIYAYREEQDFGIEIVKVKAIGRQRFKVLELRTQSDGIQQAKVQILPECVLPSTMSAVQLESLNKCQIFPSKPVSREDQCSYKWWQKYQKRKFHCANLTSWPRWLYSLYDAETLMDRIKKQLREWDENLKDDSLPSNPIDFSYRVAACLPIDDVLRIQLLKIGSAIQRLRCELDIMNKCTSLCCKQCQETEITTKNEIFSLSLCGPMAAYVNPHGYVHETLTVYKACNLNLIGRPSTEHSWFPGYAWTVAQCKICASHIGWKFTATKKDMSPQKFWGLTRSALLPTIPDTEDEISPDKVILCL
Sequence of CK1α (Q16531 whole entry partner): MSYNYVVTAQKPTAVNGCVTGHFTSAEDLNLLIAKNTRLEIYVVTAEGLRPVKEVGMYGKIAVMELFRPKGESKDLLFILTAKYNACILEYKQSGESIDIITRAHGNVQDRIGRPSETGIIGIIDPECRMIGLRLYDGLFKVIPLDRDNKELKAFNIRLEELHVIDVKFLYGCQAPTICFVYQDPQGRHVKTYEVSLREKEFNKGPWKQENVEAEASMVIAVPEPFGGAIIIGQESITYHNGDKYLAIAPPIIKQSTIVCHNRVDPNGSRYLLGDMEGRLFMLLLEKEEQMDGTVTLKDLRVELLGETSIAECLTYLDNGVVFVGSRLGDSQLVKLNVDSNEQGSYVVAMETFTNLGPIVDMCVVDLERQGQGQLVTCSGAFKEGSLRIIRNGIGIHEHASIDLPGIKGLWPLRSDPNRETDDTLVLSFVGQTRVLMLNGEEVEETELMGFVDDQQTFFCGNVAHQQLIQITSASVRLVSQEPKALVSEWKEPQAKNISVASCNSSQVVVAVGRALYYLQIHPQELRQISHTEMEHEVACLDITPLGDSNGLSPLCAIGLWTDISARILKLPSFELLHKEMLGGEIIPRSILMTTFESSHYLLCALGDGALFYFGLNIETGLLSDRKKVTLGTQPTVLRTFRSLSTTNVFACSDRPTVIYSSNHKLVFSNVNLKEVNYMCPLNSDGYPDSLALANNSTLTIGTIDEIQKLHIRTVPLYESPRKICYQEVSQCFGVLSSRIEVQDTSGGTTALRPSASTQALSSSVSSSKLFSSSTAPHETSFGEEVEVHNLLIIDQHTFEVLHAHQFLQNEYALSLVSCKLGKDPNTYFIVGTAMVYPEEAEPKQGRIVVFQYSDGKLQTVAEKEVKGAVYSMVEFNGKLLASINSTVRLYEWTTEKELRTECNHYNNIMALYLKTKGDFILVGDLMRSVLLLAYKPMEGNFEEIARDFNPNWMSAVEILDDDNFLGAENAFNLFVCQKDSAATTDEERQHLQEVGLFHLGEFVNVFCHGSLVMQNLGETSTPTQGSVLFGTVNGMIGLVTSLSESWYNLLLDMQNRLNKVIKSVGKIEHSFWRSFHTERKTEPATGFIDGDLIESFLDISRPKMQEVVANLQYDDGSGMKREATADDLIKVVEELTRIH

CK1a Degradation Rate Constant (CK1α; 0.111 uM): 0.8978 λ/hour
CK1a Percent Maximum Degradation (CK1α; 0.111 uM): 64.66% and 62.79% and 62.08%
CK1a Degradation Rate Constant (CK1α; 0.333 uM): 1.129 λ/hour
CK1a Percent Maximum Degradation (CK1α; 0.333 uM): 74.90% and 74.15% and 73.38%
CK1a Degradation Rate Constant (CK1α; 1 uM): 1.27 λ/hour
CK1a Percent Maximum Degradation (CK1α; 1 uM): 79.97% and 79.25% and 79.09%
CK1a Degradation Rate Constant (CK1α; 3 uM): 1.321 λ/hour
CK1a Percent Maximum Degradation (CK1α; 3 uM): 81.84% and 80.21% and 81.34%
CK1a Degradation Rate Constant (CK1α; 10 uM): 1.331 λ/hour
CK1a Percent Maximum Degradation (CK1α; 10 uM, replicates): 81.24% and 82.05% and 83.80%
Dmax at 0.111 µM (CK1α; CK1, 0.111 uM, read-out: CK1a Percent Maximum Degradation): 64.3%
Dmax at 0.333 µM (CK1α; CK1, 0.333 uM, read-out: CK1a Percent Maximum Degradation): 75.2%
Dmax at 1 µM (CK1α; CK1, 1 uM, read-out: CK1a Percent Maximum Degradation): 79.8%
Dmax at 3 µM (CK1α; CK1, 3 uM, read-out: CK1a Percent Maximum Degradation): 80.9%
Dmax at 10 µM (CK1α; CK1, 10 uM, replicates, read-out: CK1a Percent Maximum Degradation): 81.6%
CK1α degradation depth (HiBiT) (CK1α; HEK293): near-complete degradation
DC50 (CK1α; HEK293, at 4 h): 35 nM
SMILES: O=C1CCC(N2Cc3c(CNC(=O)c4ccc(F)cc4)cccc3C2=O)C(=O)N1 (stereo not shown) [SJ7095]
Effect on MOLM-13 cell viability (cytotoxicity) (MOLM-13 cells [1]; CTG 72 h): high toxicity against MOLM-13 cells
IC50 (MOLM-13 cells [1]; Homo sapiens, MOLM-13, CTG 72 h, read-out: IC50, MOLM-13 cell growth/viability): 71 nM
Cell viability in MOLM-13 cells (MOLM-13 cells [1]; Conc 0.00049449): 80.5902 and 73.7069 and 73.7893
Cell viability in MOLM-13 cells (MOLM-13 cells [1]; Conc 0.00148346): 82.2036 and 73.2259 and 66.8432
Cell viability in MOLM-13 cells (MOLM-13 cells [1]; Conc 0.00445039): 62.2665 and 53.3724 and 60.8209
Cell viability in MOLM-13 cells (MOLM-13 cells [1]; Conc 0.0133512): 41.9606 and 38.8721 and 37.6352
Cell viability in MOLM-13 cells (MOLM-13 cells [1]; Conc 0.0400535): 36.9208 and 28.2407 and 35.9101
Cell viability in MOLM-13 cells (MOLM-13 cells [1]; Conc 0.12016): 28.8773 and 35.0792 and 25.4306
Cell viability in MOLM-13 cells (MOLM-13 cells [1]; Conc 0.360481): 19.8758 and 18.9138 and 19.7816
Cell viability in MOLM-13 cells (MOLM-13 cells [1]; Conc 1.08144): 22.2039 and 16.4235 and 15.6504
Cell viability in MOLM-13 cells (MOLM-13 cells [1]; Conc 3.24433): 17.3048 and 13.4196 and 15.362
Cell viability in MOLM-13 cells (MOLM-13 cells [1]; Conc 9.733 (unit not given), replicates): 7.49 and 6.672 and 5.493
Treatment-induced cell death (annexin-V) (MOLM-13 cells [2]; 1 μM, 72 h, vs DMSO): increased cell death
total apoptosis, flow cytometry (MOLM-13 cells [2]; SI_Fig 4c, DMSO 9.7, 8.6, 9.8): 14.9 and 14.2 and 11
total apoptosis, flow cytometry (MOLM-13 cells [2]; SI_Fig 5c, DMSO 8, 7.6, 6.1): 18.3 and 22.4 and 27.2
Late apoptosis, flow cytometry (MOLM-13 cells [2]; SI_Fig 4b, DMSO 3, 2.7, 3): 4.8 and 4.2 and 3.7
Early apoptosis, flow cytometry (MOLM-13 cells [2]; SI_Fig 4b, DMSO 6.8, 5.8, 6.8): 10.1 and 7.2
Late apoptosis, flow cytometry (MOLM-13 cells [2]; SI_Fig 5b, DMSO 1.5, 1.2, 1.2): 4.9 and 6.3 and 8.6
Early apoptosis, flow cytometry (MOLM-13 cells [2]; SI_Fig 5b, DMSO 6.5, 6.4, 4.9): 13.4 and 16.1 and 18.6
Effect on viability of CRBN−/− cells (annexin-V) (CRBN−/− MOLM-13 cells; 1 μM): no effect on the viability
Late apoptosis, flow cytometry (CRBN−/− MOLM-13 cells; SI_Fig 4b, DMSO 3.1, 3.5, 3.3): 2.7 and 3 and 3.2
Early apoptosis, flow cytometry (CRBN−/− MOLM-13 cells; SI_Fig 4b, DMSO 7.1, 7.5, 7.8): 6.9 and 8.1 and 7
Late apoptosis, flow cytometry (CRBN−/− MOLM-13 cells; SI_Fig 5b, DMSO 1.3, 1.9, 2): 1.7 and 2.1 and 1.9
Early apoptosis, flow cytometry (CRBN−/− MOLM-13 cells; SI_Fig 5b, DMSO 4.6, 5.9, 7.6): 6.5 and 6.7 and 7.2
total apoptosis, flow cytometry (CRBN−/− MOLM-13 cells; SI_Fig 4c, DMSO 10.2, 11.1, 11.2): 9.6 and 11.1 and 10.2
total apoptosis, flow cytometry (CRBN−/− MOLM-13 cells; SI_Fig 5c, DMSO 5.8, 7.8, 9.6): 8.2 and 8.8 and 9.1
